Data taken from PubChem BioAssay AID192 (DTP/NCI, 2004).
Toxic doses and inconclusive results are not listed. How the source made its calls: active means survival T/C of 150% or more; inactive means T/C below 125% in these data.

System: BDF1 mice, B16 melanoma ip, median survival T/C
Assay: NCI In Vivo Anticancer Drug Screen. Data for tumor model B16 Melanoma (intraperitoneal) in B6D2F1 (BDF1) mice
Details: endpoint: median survival time, higher = longer survival
Procedure: The antitumor activity of compounds was measured in mice bearing transplantable tumors. Survival or tumor size were measured and the results are expressed as the measurement made in the treated group (T) divided by the measurement made in the vehicle treated control group (C). The tumor model used in this assay is B16 Melanoma (intraperitoneal) in B6D2F1 (BDF1) mice

[1] = dose: 100.0 mg/kg/injection, schedule: Q01DX009 (ip), vehicle: Klucel (hydroxypropylcellulose) (HPC)
[2] = dose: 200.0 mg/kg/injection, schedule: Q01DX009 (ip), vehicle: Klucel (hydroxypropylcellulose) (HPC)
[3] = dose: 400.0 mg/kg/injection, schedule: Q01DX009 (ip), vehicle: Klucel (hydroxypropylcellulose) (HPC)
[4] = dose: 50.0 mg/kg/injection, schedule: Q01DX009 (ip), vehicle: Klucel (hydroxypropylcellulose) (HPC)
[5] = dose: 12.5 mg/kg/injection, schedule: Q01DX009 (ip), vehicle: Klucel (hydroxypropylcellulose) (HPC)
[6] = dose: 25.0 mg/kg/injection, schedule: Q01DX009 (ip), vehicle: Klucel (hydroxypropylcellulose) (HPC)
[7] = dose: 1.0 mg/kg/injection, schedule: Q01DX009 (ip), vehicle: saline

Measured: T/C

COc1ccc(-c2cc(=O)c3c(ccc4ccccc43)o2)cc1
inactive: [1] 94 % of control | [2] 100 % of control | [3] 102 % of control

Cc1ccc2ccccc2c1OC(C)C(=O)O (configuration not stated)
inactive: dose: 25.0 mg/kg/injection, schedule: Q04DX003 (ip), vehicle: alcohol 100 % of control | dose: 50.0 mg/kg/injection, schedule: Q01DX009 (ip), vehicle: alcohol 112 % of control | dose: 50.0 mg/kg/injection, schedule: Q04DX003 (ip), vehicle: alcohol 100 % of control | dose: 100.0 mg/kg/injection, schedule: Q01DX009 (ip), vehicle: alcohol 109 % of control | dose: 100.0 mg/kg/injection, schedule: Q04DX003 (ip), vehicle: alcohol 88 % of control

O=C(Nc1ccccc1C(=O)O)c1cc([N+](=O)[O-])cc([N+](=O)[O-])c1
inactive: dose: 12.5 mg/kg/injection, schedule: Q01DX009 (ip), vehicle: saline with Tween-80 98 % of control | dose: 25.0 mg/kg/injection, schedule: Q01DX009 (ip), vehicle: saline with Tween-80 101 % of control | dose: 50.0 mg/kg/injection, schedule: Q01DX009 (ip), vehicle: saline with Tween-80 111 % of control | dose: 100.0 mg/kg/injection, schedule: Q01DX009 (ip), vehicle: saline with Tween-80 95 % of control | dose: 200.0 mg/kg/injection, schedule: Q01DX009 (ip), vehicle: saline with Tween-80 87 % of control

Cc1cnc2c(NC(=O)CCl)nn(C)c2n1
inactive: [4] 103 % of control | [1] 101 % of control

Cc1ccc(NC(=O)c2ccc(Cl)cc2)cc1Cl
inactive: dose: 75.0 mg/kg/injection, schedule: Q01DX009 (ip), vehicle: Klucel (hydroxypropylcellulose) (HPC) 100 % of control | dose: 150.0 mg/kg/injection, schedule: Q01DX009 (ip), vehicle: Klucel (hydroxypropylcellulose) (HPC) 115 % of control | dose: 300.0 mg/kg/injection, schedule: Q01DX009 (ip), vehicle: Klucel (hydroxypropylcellulose) (HPC) 88 % of control

Nc1nc(O)c(CC(=O)O)s1
inactive: [5] 88 % of control | [6] 91 % of control | [4] 95 % of control

Clc1ccc(Cl)c(NNc2cc(Cl)ccc2Cl)c1
inactive: [6] 101 % of control | [4] 95 % of control | [1] 101 % of control

COc1ccc2nc3cc(Cl)ccc3c(Nc3ccc(O)c(CN(CCCl)CCCl)c3)c2c1
inactive: dose: 0.25 mg/kg/injection, schedule: Q01DX009 (ip), vehicle: saline 104 % of control | dose: 0.5 mg/kg/injection, schedule: Q01DX009 (ip), vehicle: saline 121 % of control | [7] 120 % of control

NC(Cc1cc(I)c(Oc2cc(I)c(O)c(I)c2)c(I)c1)C(=O)O (configuration not stated)
inactive: [7] 93 % of control | dose: 2.0 mg/kg/injection, schedule: Q01DX009 (ip), vehicle: saline 101 % of control | dose: 4.0 mg/kg/injection, schedule: Q01DX009 (ip), vehicle: saline 92 % of control | dose: 16.0 mg/kg/injection, schedule: Q01DX009 (ip), vehicle: saline 101 % of control

O=C1c2ccccc2CC12OC2c1ccccc1 (configuration not stated)
inactive: [4] 94 % of control | [1] 90 % of control | [2] 103 % of control | [3] 96 % of control

Cc1cnc2c(N)[nH]nc2n1
inactive: [4] 97 % of control | [1] 106 % of control | [2] 107 % of control

CCC(CO)NC(=O)C1C=C2c3cccc4[nH]cc(c34)CC2N(C)C1 (configuration not stated)
inactive: dose: 6.25 mg/kg/injection, schedule: Q01DX009 (ip), vehicle: Klucel (hydroxypropylcellulose) (HPC) 93 % of control | [5] 98 % of control | [6] 91 % of control | [4] 86 % of control | [1] 86 % of control | [2] 111 % of control

C=CCNC(=O)c1ccccc1SC(C)=O
inactive: dose: 100.0 mg/kg/injection, schedule: Q01DX009 (ip), vehicle: saline + Tween-80 + alcohol 101 % of control | dose: 200.0 mg/kg/injection, schedule: Q01DX009 (ip), vehicle: saline + Tween-80 + alcohol 116 % of control | dose: 400.0 mg/kg/injection, schedule: Q01DX009 (ip), vehicle: saline + Tween-80 + alcohol 124 % of control
